The assay relates to phosphate uptake by rabbit intestinal Brush Border Membrane Vesicles (BBMV). The assay can be described thus: 33PO4 Uptake in Rabbit Intestinal BBMV High Throughput Screening (HTS) assay. To be noted: inhibition of 33PO4 uptake, 15 minutes. In kind it is biochemical. The text has this:
The activity of compounds of the present invention can be assessed using suitable assays, such as the ^33PO4 Uptake In Rabbit Intestinal BBMV High Throughput Screening (HTS) assay, as described in the Example 28. Compounds of the present invention can also be identified by virtue of their ability to inhibit the absorption of phosphate in vivo, for example, in the gastrointestinal tract of a laboratory animal.
The following example outlines the procedures required for in vitro measurement of the inhibition of phosphate uptake by rabbit intestinal Brush Border Membrane Vesicles (BBMV).
Rabbit Intestinal Brush Border Membrane Vesicles (BBMV) were isolated from mucosal scrapings of the upper small intestine (duodenum) of male New Zealand White rabbits. The scrapings were divided into 2 g aliquots in cryopreservation vials, frozen in liquid nitrogen, and stored at −80° C.
The following procedure was performed for each 2 g sample of BBMV mucosal scraping. Buffer volumes and container sizes were adjusted appropriately for the number of 2 g samples used. The entire preparation was performed on ice, unless otherwise stated.
Mucosal scrapings (2 g per tube) were thawed in a 37° C. water bath for 3 minutes and then placed on ice. The scrapings were suspended with a total of 7.5 mL of 300 MET, and transferred to a 250 mL Coming tube on ice. To the suspension was added 30 mL cold (4° C.) deionized water (dH2O). The suspension was homogenized with a tissue homogenizer (Polytron) on high speed for two minutes. A stir bar and MgCl2 (81.3 mg) were added. The suspension was mixed well by inverting the closed tube. The suspension was stirred on ice, ensuring that a good vortex is achieved with the stir bar, for 40 minutes. The suspension was transferred to a chilled centrifuge tube and spun at 4000×g for 15 minutes. The supernatant was transferred to a new chilled centrifuge tube and spun at 32000×g for 30 minutes. The supernatant was discarded and the pellet was re-suspended with 34 mL cold 60 MET. The suspension was homogenized with a Dounce homogenizer with 8 strokes. The suspension was transferred to a fresh 250 mL Coming tube. A stir bar and 69.1 mg MgCl2 were added. The suspension was stirred well on ice for 10 minutes. The suspension was transferred to a chilled centrifuge tube and spun at 4000×g for 15 minutes. The supernatant was transferred to a new chilled centrifuge tube and spun at 32000×g for 30 minutes. The supernatant was discarded. At this stage, the preparation could be continued or this pellet (P4) could be frozen in liquid nitrogen and stored at −80° C. When needed, this pellet could be allowed to thaw at room temperature for 5 minutes. Continuing the preparation, the pellet was re-suspended with 34 mL cold 280 MH. The suspension was homogenized in a Dounce homogenize with 8 strokes. The suspension was transferred to a new chilled centrifuge tube and spun at 32000×g for 30 minutes. The supernatant was discarded. To the pellet was added 500 μL 280 MH and the pellet was re-suspended very carefully with a 1 mL tuberculin syringe with a 25-gauge needle with care not to create bubbles. Once the entire pellet was suspended, the suspension was transferred to a chilled 1.5 mL microfuge tube. The suspension was evenly dispersed by bringing the suspension up into the syringe through the 25-gauge needle, and back out again eight times with care not to create bubbles. The total protein concentration was determined by performing a Bradford Protein Assay. Using that value, the BBMV were diluted with 280 MH to reach approximately 0.5-2.0 mg/mL. The solution was used as soon as possible for uptake studies.
^33PO4 Uptake in Rabbit Intestinal BBMV
The following experiment was performed using a Beckman Multimek 96-tip robotic pipettor. The following outlines the preparation required to screen one 96-well plate of compounds. However, multiple plates could be screened in one experiment. […]

pIC50: −log10 of the molar value. Bounds are passed on as bounds.

In the case of `O=P(O)(O)CP(=O)(O)CCCCCCCCCC(Br)CBr` (centres unmarked) [Compound 6], the pIC50 was above 4.00. The compound `CCCCCCCCCCC(P(C)(=O)O)P(=O)(O)O` (centres unmarked) [Compound 26] showed a pIC50 of 3.00 to 3.15.

`C=CCCCCCCCCCP(=O)(O)CP(=O)(O)O` [Compound 4] had a pIC50 above 4.00.

For `C=CCCCCCCCCCP(=O)(O)C(CCCCC)P(=O)(O)O` (centres unmarked) [Compound 23], the negative-log IC50 (pIC50) was 3.00 to 3.15. As to `O=P(O)(O)CP(=O)(O)c1ccc(C(F)(F)F)cc1` [Compound 5], the pIC50 was above 4.00. Take `C=CCCCCCCCCCP(=O)(O)C(F)(F)P(=O)(O)O` [Compound 2]: the pIC50 was above 4.00. Compound `NCCCCCCCCCCCP(=O)(O)CP(=O)(O)O` [Compound 27] showed a pIC50 of 2.80 to 3.00.

`C=CCCCP(=O)(O)C(CCCCCCCCCC)P(=O)(O)O` (centres unmarked) [Compound 17] had a pIC50 of 3.15 to 3.52.

Regarding `C=CC(=O)NCCCCCCCCCCCP(=O)(O)CP(=O)(O)O` [Compound 35], the pIC50 was below 2.80. `O=P(O)(O)CP(=O)(O)C1CCCCC1` [Compound 33] showed a negative logarithm of the IC50 (pIC50) below 2.80.

`CCC(=O)NCCCCCCCCCCCP(=O)(O)CP(=O)(O)O` [Compound 24] had a pIC50 of 3.00 to 3.15.

`O=P(O)(O)CP(=O)(O)C/C=C/c1ccccc1` [Compound 30] had a pIC50 of 2.80 to 3.00.

`O=P(O)(O)CP(=O)(O)CCCCCBr` [Compound 29]: the pIC50 is 2.80 to 3.00. Compound `CCCCCCCCCCP(=O)(O)CP(=O)(O)O` [Compound 1] gave a pIC50 above 4.00. With `CCCCCCCCCC(CCCCCNC(=O)CC)P(=O)(O)CP(=O)(O)O` (centres unmarked) [Compound 28] the figure was 2.80 to 3.00.

Take `O=P(O)(O)CP(=O)(O)CCCCCCCCCCCO` [Compound 25]: the pIC50 was 3.00 to 3.15. Compound `C=CCCCCCCCCCP(=O)(O)CP(=O)(O)CP(=O)(O)O` [Compound 16] showed a pIC50 of 3.52 to 4.00. `O=C1c2ccccc2C(=O)N1CCCCCCCCCCCP(=O)(O)CP(=O)(O)O` [Compound 8] gave a pIC50 above 4.00. `C=CCCCP(=O)(O)CP(=O)(O)O` [Compound 34] showed a pIC50 below 2.80. The compound `C=CCCCP(=O)(O)C(CCCC1CCCCC1)P(=O)(O)O` (centres unmarked) [Compound 36] showed a pIC50 below 2.80. With `C=CCCCCCCCCCP(=O)(O)C(F)P(=O)(O)O` (centres unmarked) [Compound 3] the figure was above 4.00. As for `C=CCCCP(=O)(O)C(Cc1ccc(-c2ccccc2)cc1)P(=O)(O)O` (centres unmarked) [Compound 32], the pIC50 is 2.80 to 3.00. `C=CCCC(CCCCCCCCCC)P(=O)(O)CP(=O)(O)O` (centres unmarked) [Compound 11] had a pIC50 of 3.52 to 4.00. The compound `O=P(O)(O)CP(=O)(O)CCCCCCCCCC1CO1` (centres unmarked) [Compound 22] gave a pIC50 of 3.00 to 3.15. In the case of `CCCCCCCCCC(CCCCCN)P(=O)(O)CP(=O)(O)O` (centres unmarked) [Compound 18], the pIC50 was 3.15 to 3.52. For `O=P(O)(O)CP(=O)(O)CCCCCCCCCCCNS(=O)(=O)c1ccc(OC(F)(F)F)cc1` [Compound 14] the value was 3.52 to 4.00. With `O=P(O)(O)CP(=O)(O)CCCC1CCCCC1` [Compound 19] the figure was 3.15 to 3.52; with `O=C(NCCCCCCCCCCCP(=O)(O)CP(=O)(O)O)c1ccc(OC(F)(F)F)cc1` [Compound 10], 3.52 to 4.00. For `C=CCCCCCCCCCP(=O)(O)C(CCCCC)P(=O)(O)O` (centres unmarked) [Compound 21] the value was 3.00 to 3.15.

A word on the pIC50: it is the IC50 on a negative log10 scale, so that one unit is a factor of ten. Low readings indicate a large IC50, high ones a small IC50.
